Columns and labels:
C/EBPα = assay: Immunoblotting, C/EBPα protein in 3T3-L1; assay type: cell-based, mouse; conditions: 8 days
Experimental: Immunoblotting: Protein expression of SREBP-1, PPARγ, and C/EBPα relative to […] was assessed by Western Blot. Total proteins were isolated from 3T3-L1 cells treated with compounds or vehicles for 8 days. The cells were washed twice with PBS, lysed in a HEPES-Tx-PI buffer ([…], 5 mM EDTA, 350 mM Sucrose, 1 μg/ml leupeptin, 1 μg/ml pepstatin, 1% Triton-X, 1 mM PMSF), processed with 25G needles and centrifuged at 12,000 rpm for 5 min. Protein concentration was determined using the Micro BCA Protein Assay Kit (Fisher Scientific, Pittsburgh, Pa., USA) following the manufacturers instructions. 25 μg proteins were loaded and separated by electrophoresis using the BioRad Electrophoretic System (65 V for 7 hour). The proteins were then transferred to nitrocellulose membranes at 40 V overnight. The membrane was blocked for 1 hour at room temperature in 5% nonfat milk in Tris-buffered saline (TBS), then washed with Tween-20-TBS (TTBS, 0.1% Tween-20) three times (15 min, 5 min, 5 min), followed by incubation with primary antibodies SREBP-1 (dilution 1:200), PPARγ (dilution 1:200), C/EBPα (dilution 1:200) (all purchased from Santa Cruz Biotechnology, Santa Cruz, Calif., USA) and […] (dilution 1:1000, Sigma-Aldrich, St. Louis, Mo., USA) at room temperature for 2 hours. […]

Adiponectin = assay: Real-time RT-PCR, Adiponectin mRNA in 3T3-L1; assay type: cell-based, mouse; conditions: 8 days
Source text: (§1) Realtime RT-PCR: Real-time reverse transcriptase polymerase chain reaction (RT-PCR) analysis was used to measure mRNA expression of genes SREBP-1, PPARγ, C/EBPα, low density lipoprotein receptor (LDLR), Adiponectin, and fatty acid synthase (FAS) under the control of β-actin. Briefly, total RNA was isolated from 3T3-L1 cells following treatment for 8 days with Trizol reagent (Invitrogen, Carlsbad, Calif., USA) according to the manufacturer's instruction. RNA was quantified using absorption of light at 260 nm, and sample purity was checked by OD 260 nm/280 nm. 0.8 μg of total RNA from each sample was used for reverse transcription reaction using the TaqMan Reverse Transcription Reagents (Applied Biosystems, Foster City, Calif., USA) according to the manufacturers' instructions. PCR was done using the SYBR green Master Mix (Applied Biosystems, Foster City, Calif., USA) according to the manufacturers' instructions. The temperature cycling conditions of amplification were as follows: an initial step of denaturation at 95° C. for 10 min, 40 cycles of denaturation at 95° C. for 30 s, annealing at 55° C. for 30 s, and elongation at 72° C. for 30 s. Realtime RT-PCR was performed using Mx3000P Realtime Thermocyclers (Statagene, La Jolla, Calif., USA). The relative mRNA levels of these genes were calculated by 2-delta delta CT method and normalized with control groups.

GATA-3 = assay: Immunoblot, GATA-3 protein in 3T3-L1 cells; assay type: cell-based, mouse; conditions: DM + 1, 2, 4, 8 μM, 8 days, p<0.05
Experimental: Immunoblot Analysis: GATA-2 and GATA-3 protein expression were assessed by Western blot. […] The cells were washed twice with PBS, lysed in a lysis buffer (HEPES-Tx-PI buffer: 10 mM HEPES, 5 mM EDTA, 350 mM Sucrose, 1 ug/ml leupeptin, 1 ug/ml pepstatin, 1% Triton-X, 1 mM PMSF, diluted in water), processed with a 25G needle and centrifuged at 10,000 rpm for 5 min. Protein concentration was determined using the […] according to the Pierce Protein Assay Protocol. Total protein (50 μg) was used for GATA-2 and GATA-3 analysis and was separated by electrophoresis using BioRad Electrophoretic System (60 V for 1 hour followed by 90 V for 5 hours). The protein was then transferred to nitrocellulose membranes at 35 V overnight. The membrane was blocked for 1 hour at room temperature in 5% nonfat milk in Tris-buffered saline (TBS), then washed with Tween-20-TBS (TTBS, 0.1% Tween-20) three times (15 min, 5 min, 5 min), followed by incubation with primary antibodies of GATA-2 (dilution 1:500), GATA-3 (dilution 1:500), β-Actin (dilution 1:1000) at room temperature for 2 hours. The membrane was rinsed three times (15 min, 5 min, 5 min), then incubated at room temperature for 1 hour with Horseradish peroxidase-conjugated second antibody (1:10,000). The membrane was then incubated in ECL reagent for 1 minute. Protein was visualized using UVP image analysis system.

[1] = test system: fatty acid synthase (FAS); assay: Real-time RT-PCR, FAS mRNA in 3T3-L1; assay type: cell-based, mouse; conditions: 8 μM berberine + 50 μM risperidone, 8 days
Source text: as §1

[2] = test system: SERT (serotonin transporter); assay: Real-Time RT-PCR, SERT mRNA in RN46A cells; assay type: cell-based
Experimental: Realtime RT-PCR: Real-Time reverse transcriptase polymerase chain reaction (RT-PCR) analysis was used to measure mRNA expression of SERT under the control of β-actin. Briefly, total RNA was isolated from RN46A cells following treatment with Trizol reagent (Invitrogen, Carlsbad, Calif., USA) according to the manufacturer's instruction. […] 0.8 μg of total RNA from each sample was used for reverse transcription reaction using the TaqMan Reverse Transcription Reagents (Applied Biosystems, Foster City, Calif., USA) following the manufacturer's instructions. PCR was done using the SYBR green Master Mix (Applied Biosystems, Foster City, Calif., USA) following the manufacturer's instructions. The temperature cycling conditions of amplification were as follows: an initial step of denaturation at 95° C. for 10 min, 40 cycles of denaturation at 95° C. for 30 s, annealing at 55° C. for 30 s, and elongation at 72° C. for 30 s. Real-Time RT-PCR was performed using Mx3000P Real-Time Thermocyclers (Statagene, La Jolla, Calif., USA).

[3] = 8 μM berberine + 15 μM clozapine
[4] = 8 μM berberine + 50 μM risperidone

Compound | decrease of C/EBPα protein expression vs clozapine treated group (C/EBPα; [3]) [%] | decrease of C/EBPα protein expression vs risperidone treated group (C/EBPα; [4]) [%] | decrease of adiponectin mRNA expression vs clozapine treated group (Adiponectin; [3]) [%] | decrease of Adiponectin mRNA expression vs risperidone treated group (Adiponectin; [4]) [%] | GATA-3 protein expression (GATA-3) | decrease of FAS mRNA expression vs risperidone treated group [1] [%] | increase of SERT mRNA expression vs control group ([2]; 2 μM evodiamine) [fold] | increase of SERT mRNA expression vs control group ([2]; 4 μM evodiamine) [fold]
COc1ccc2cc3[n+](cc2c1OC)CCc1cc2c(cc1-3)OCO2.[Cl-] [berberine, Berberine (Chloride Form)] | 73 | 68 | 96.3 | 98.2 | increase | 85.5 |  | 
evodiamine |  |  |  |  |  |  | 2.5 | 1.7

Reference: patent US20110281852A1 (priority 2010, published 2011)
